# ChEMBL document CHEMBL1134353, “X-Ray structure of citrate bound to Src SH2 leads to a high-affinity, bone-targeted Src SH2 inhibitor” (J Med Chem, 2001)
# Key:
# [1] = target: Proto-oncogene tyrosine-protein kinase Src (Homo sapiens, UniProt P12931); experiment: Inhibition of binding to Src SH2 domain
# Oryctolagus cuniculus = organism: Oryctolagus cuniculus; experiment: Ability to inhibit osteoclast mediated resorption of dentine in rabbit; format: functional
# Proto-oncogene tyrosine-protein kinase Src, sequence (P12931 2-536 limits assumed): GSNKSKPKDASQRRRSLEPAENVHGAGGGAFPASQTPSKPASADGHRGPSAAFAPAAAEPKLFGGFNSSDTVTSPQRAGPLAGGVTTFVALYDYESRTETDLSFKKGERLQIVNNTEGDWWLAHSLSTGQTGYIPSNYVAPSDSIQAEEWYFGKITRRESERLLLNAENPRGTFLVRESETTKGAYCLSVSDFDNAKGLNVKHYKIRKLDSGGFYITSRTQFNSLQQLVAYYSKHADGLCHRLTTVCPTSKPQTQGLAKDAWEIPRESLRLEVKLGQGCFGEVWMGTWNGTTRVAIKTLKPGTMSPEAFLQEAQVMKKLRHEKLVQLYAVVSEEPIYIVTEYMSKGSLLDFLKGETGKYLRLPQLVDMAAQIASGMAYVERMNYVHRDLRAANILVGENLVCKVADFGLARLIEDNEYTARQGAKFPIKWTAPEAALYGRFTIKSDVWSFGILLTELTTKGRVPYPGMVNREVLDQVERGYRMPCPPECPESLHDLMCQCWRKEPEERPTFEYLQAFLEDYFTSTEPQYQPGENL
SMILES,IC50 [1] [µM],IC50 (Oryctolagus cuniculus) [µM]
CC(=O)N[C@@H](Cc1ccc(C(P(=O)(O)O)P(=O)(O)O)cc1)C(=O)N[C@@H](C)c1ccc(OCC2CCCCC2)c(C(N)=O)c1,0.35,2
CC(=O)N[C@@H](Cc1ccc(CP(=O)(O)O)cc1)C(=O)N[C@@H](C)c1ccc(OCC2CCCCC2)c(C(N)=O)c1,7.9,–
